Reference: patent US9861703B2 (Jinan Platinum Pharmatech Co. Ltd., priority 2013, dated 2018)
Where a name gives a salt, the structure may show the parent alone. Blank lines part the entries; values can stand above or below the compound they belong to.

Legend:
[1] = test system: human ovarian cancer cell line 3-AO; experiment: MTT proliferation inhibition, 3-AO; format: cell-based; conditions: 48 h
Experimental: (§1) Human leukemia cell line K562, clear-cell ovarian carcinoma cell line ES-2, human prostate cancer cell line PC-3, human breast cancer cell line MCF-7, cell line Hela, human liver cancer cell line H7402 and human ovarian cancer cell line 3-AO were transferred into a culture flask and were cultured in a medium at 37° C. in a 5% CO2 and saturation humidity. One bottle of cells in logarithmic growth phase was picked out and was blew and beaten to be uniform with a pipette, then took some cell suspension solution to prepare blood counting plate smear to count cells under inverted microscope, and then adjusted the cell number to be 1×10^5/mL by adding some culture medium. Cells were seeded on a 96-well plate on which also drug tests performed. Blank control group, negative control group, positive control group and drug test group were established on the plate while the surrounding wells of the plate were not used (but filled with sterile PBS), wherein the blank control groups were prepared by addition of culture medium 150 μL per well, the negative control groups were prepared by addition of cell suspension solution 100 μL per well and culture medium 50 μL per well, the positive control groups were prepared by addition of cell suspension solution 100 μL per well and positive control drug solution 50 μL per well, the drug test groups were prepared by addition of cell suspension solution 100 μL per well and test compound solution 50 μL per well, and there were 5 different concentrations of drug in the positive control group and the drug test group respectively: 0.01, 0.1, 1, 10, 100 μmol·L^−1, each concentration was established with 3 parallel wells. After the drug was added, the 96-well plate was incubated for 48 h at 37° C. in a CO2 incubator of 5% CO2 and saturation humidity. Upon completion of the incubation, 20 μL MTT solution (concentration was 5 mg/mL) was added to each well and incubated for an additional 4 h, and after the 96-well plate was centrifuged at 2000 rpm for 30 min, medium of each well was suck out carefully and removed and 100 μL DMSO was added instead, followed by vibrating on a tablet shaker for 15 min to re-dissolve formazan crystals completely. OD value of each well was measured at 570 nm wavelength using an enzyme-linked immunosorbent assay reader to calculate cellular proliferation inhibitory ratio of each drug in different concentrations. And half-inhibitory concentration (IC50) was calculated using statistical software SPSS 16.0, wherein the cellular proliferation inhibitory ratio can be calculated as following equation: […]

[2] = test system: clear-cell ovarian carcinoma cell line ES-2; experiment: MTT proliferation inhibition, ES-2; format: cell-based; conditions: 48 h
Experimental: as §1

[3] = test system: human liver cancer cell line H7402; experiment: MTT proliferation inhibition, H7402; format: cell-based
Experimental: as §1

cell line Hela = experiment: MTT proliferation inhibition, Hela; format: cell-based; conditions: 48 h
Experimental: as §1

[4] = test system: human prostate cancer cell line PC-3; experiment: MTT proliferation inhibition, PC-3; format: cell-based; conditions: 48 h
Experimental: as §1

[5] = test system: human breast cancer cell line MCF-7; experiment: MTT proliferation inhibition, MCF-7; format: cell-based
Experimental: as §1

[6] = test system: human leukemia cell line K562; experiment: MTT proliferation inhibition, K562; format: cell-based
Experimental: as §1

Aminopeptidase N = molecular target: T1, Aminopeptidase N (Sus scrofa, UniProt P15145); experiment: Inhibition activity against enzyme in vitro (aminopeptidase N, L-Leu-p-nitroanilide substrate); format: biochemical; conditions: for IC50: 37° C., 0.5 h, absorbance 405 nm, PBS pH 7.2, read-out: IC50(μM) APN
T1 construct: purchased Sigma
T1 sequence (P15145 1-963): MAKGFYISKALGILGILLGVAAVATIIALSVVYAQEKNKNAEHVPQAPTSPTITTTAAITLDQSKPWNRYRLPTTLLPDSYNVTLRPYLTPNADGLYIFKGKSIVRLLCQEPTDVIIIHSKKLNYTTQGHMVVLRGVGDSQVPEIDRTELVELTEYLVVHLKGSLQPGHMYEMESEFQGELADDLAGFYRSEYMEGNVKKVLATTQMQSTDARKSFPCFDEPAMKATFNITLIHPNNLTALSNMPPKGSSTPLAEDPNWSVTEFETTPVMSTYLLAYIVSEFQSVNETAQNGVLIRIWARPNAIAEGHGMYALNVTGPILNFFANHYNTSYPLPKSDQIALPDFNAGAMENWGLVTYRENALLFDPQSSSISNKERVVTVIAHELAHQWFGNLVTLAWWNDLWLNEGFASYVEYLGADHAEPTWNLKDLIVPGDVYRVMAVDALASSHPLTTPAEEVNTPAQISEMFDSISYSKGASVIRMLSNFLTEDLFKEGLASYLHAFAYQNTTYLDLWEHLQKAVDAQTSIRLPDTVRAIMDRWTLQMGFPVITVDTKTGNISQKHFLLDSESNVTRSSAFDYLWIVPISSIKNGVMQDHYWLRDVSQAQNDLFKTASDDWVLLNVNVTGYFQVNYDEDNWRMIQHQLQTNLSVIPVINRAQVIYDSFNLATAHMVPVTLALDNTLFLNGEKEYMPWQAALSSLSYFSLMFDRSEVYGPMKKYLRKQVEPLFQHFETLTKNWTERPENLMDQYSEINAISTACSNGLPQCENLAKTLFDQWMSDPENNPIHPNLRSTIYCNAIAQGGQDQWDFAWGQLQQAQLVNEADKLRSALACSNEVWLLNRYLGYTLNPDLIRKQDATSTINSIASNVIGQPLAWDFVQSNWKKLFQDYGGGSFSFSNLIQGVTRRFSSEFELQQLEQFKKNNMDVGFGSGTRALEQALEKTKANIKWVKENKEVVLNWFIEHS
Experimental: Aminopeptidase N and L-Leu-p-nitroanilide as substrate were purchased from Sigma cooperation.
Preparation of Buffer Solution: 12.89 g Na2HPO4.12H2O and 2.18 g NaH2PO4.2H2O were dissolved in a 1000 mL volumetric flask, then the mixture was diluted to 1000 mL with fresh distilled water to obtain 50 mM Phosphate Buffer solution (PBS, pH 7.2), which was kept at room temperature to spare.
Aminopeptidase N was dissolved in the buffer solution to obtain 0.1 IU/mL solution.
The substrate was dissolved in DMSO to obtain a […] solution, which was kept in refrigerator to spare.
The aminopeptidase N solution 10 μL, the substrate solution 5 μL and compound with different concentration 40 μL were added into a 96-well cell plate, and then adjusted to 200 μL with phosphate buffer saline solution (pH 7.2). […] And the substrate solution 5 μL of blank group was adjusted to 200 μL with buffer solution. The mixture was incubated at 37° C. for 0.5 h, and absorbance was then determined at 405 nm wavelength Inhibitory ratio can be calculated as follows: […]
According to concentration of compound and corresponding inhibitory ratio, the IC50 value was calculated by using a fitting curve of Origin 7.5 software.

[7] = test system: 7 cell lines (ES-2, K562, PC-3, MCF-7, Hela, H7402, 3-AO); experiment: MTT proliferation inhibition, all 7 tumor cell lines (summary in words); format: cell-based
Experimental: as §1

H22 tumor cells = experiment: Activities of compounds in H22 tumor cells bearing Kunming mice models (Example 34); conditions: intravenous injection, 58.3 mg/kg/d (0.1 mmol/kg/d)
Experimental: The ascites was extracted from H22 tumour bearing mice with well growth, followed by adding sterile PBS to dilute the ascites to a concentration of 8.5×10^7 cells/mL. 100 uL of the cells solution was suck up by a 1 mL sterile injector to inoculate into right oxter of mice. After 3 days, the mice were weighted and randomized to several groups (almost 8 mice per group, and a bit more in control group). These mice were administrated a predetermined dosage by intravenous or oral gavage with two days off when having administrated for 5 days until two cycles one of which had 7 days. The body weight of mouse was recorded at the beginning and ending of every cycle,
After being administrated for two cycles, the mice were weighted and recorded, then sacrificed by cervical dislocation to get lung, liver and spleen weighted respectively.
Overall difference was calculated by the function of one-way analysis of variance (One-Way ANOVA) in Origin 7.5 software; and t-test was used for pair-comparison between drug administrated group and blank group, and the inhibitory ratio of drug in each group was calculated based on the following equation: inhibitory ratio (100%)=(mean tumor weight of control group−mean tumor weight of drug administrated group)/mean tumor weight of control group×100.

- EC50 ([1]; Homo sapiens): > 400 µM
- EC50 ([2]; Ovarian carcinoma cell): > 400 µM
- EC50 ([3]; Homo sapiens, H7402, 48 h): 189 µM
- EC50 (cell line Hela; Homo sapiens): 79.6 µM
- EC50 ([4]; Homo sapiens): > 400 µM
- EC50 ([5]; Homo sapiens, MCF7, 48 h): 32.7 µM
- EC50 ([6]; Homo sapiens, K562, 48 h): > 400 µM
Compound: CC(C)C[C@H](NC(=O)[C@@H](O)[C@H](N)Cc1ccccc1)C(=O)O [ubenimex, Ubenimex, reference compound]

Compound: (S)-2-(4-(6-(5-(2-chloro-6-methylphenyl)-2-thiazolylcarbonyl amino)-2-methyl-4-pyrimidinyl)-1-piperazinyl)ethyl-2-((2S,3R)-3-amino-2-hydroxy-4-phenylbutyryl)-4-methylpentanoate hydrochloride [Compound 32]
- inhibitory activity against aminopeptidase N compared with positive control ubenimex (Aminopeptidase N): comparable activity with ubenimex
- IC50 (Aminopeptidase N): 7.88 µM
- EC50 [1]: 4.89 µM
- EC50 [2]: 6.45 µM
- EC50 ([3]; 48 h): 6.75 µM
- EC50 (cell line Hela): 3.23 µM
- anti-proliferation effect against all the tumor cells [7]: obvious anti-proliferation effect
- proliferation inhibition activity compared with 5-FU [7]: much more potent than 5-FU
- EC50 [4]: 14.1 µM
- EC50 ([5]; 48 h): 3.65 µM
- EC50 ([6]; 48 h): 6.33 µM

- IC50 (Aminopeptidase N): 4.66 µM
Compound: CC(C)C[C@H](NC(=O)[C@@H](O)[C@H](N)Cc1ccccc1)C(=O)NCCCCCC(=O)OCn1cc(F)c(=O)[nH]c1=O [BC-06, hydrochloride]
- inhibitory activity against aminopeptidase N compared with positive control ubenimex (Aminopeptidase N): much more potent than the positive control drug ubenimex

- inhibitory activity against aminopeptidase N compared with positive control ubenimex (Aminopeptidase N): comparable activity with ubenimex
- IC50 (Aminopeptidase N): 2.92 µM
- EC50 ([1]; Homo sapiens): 9.06 µM
- EC50 ([2]; Ovarian carcinoma cell): 5.66 µM
- EC50 ([3]; Homo sapiens, H7402, 48 h): 7.98 µM
- EC50 (cell line Hela; Homo sapiens): 5.55 µM
- EC50 ([4]; Homo sapiens): 13.3 µM
- EC50 ([5]; Homo sapiens, MCF7, 48 h): 6.74 µM
- EC50 ([6]; Homo sapiens, K562, 48 h): 6.52 µM
Compound: CC(C)C[C@H](NC(=O)[C@@H](O)[C@H](N)Cc1ccccc1)C(=O)ONC(N)=O [Compound 22, (2S,3R)-3-amino-2-hydroxy-N—((S)-4-methylvaleryl)oxy)ureido)-4-phenylbutanamide hydrochloride]
- anti-proliferation effect against all the tumor cells [7]: obvious anti-proliferation effect
- proliferation inhibition activity compared with 5-FU [7]: much more potent than 5-FU

- IC50 (Aminopeptidase N): 0.36 µM
Compound: CC(C)C[C@H](NC(=O)[C@@H](O)[C@H](N)Cc1ccccc1)C(=O)N[C@@H](C)C(=O)OCn1cc(F)c(=O)[nH]c1=O.Cl [BC-03, (S)-(5-fluoro-2,4-dioxo-3,4-dihydropyrimidinyl-1(2H))methyl-2-((S)-2-((2S,3R)-3-amino-2-hydroxy-4-phenylbutanamido)-4-methylpentanamido)propanoate hydrochloride]
- inhibitory activity against aminopeptidase N compared with positive control ubenimex (Aminopeptidase N): much more potent than the positive control drug ubenimex

- IC50 (Aminopeptidase N): 1.3 µM
Compound: CC(C)C[C@H](NC(=O)[C@@H](O)[C@H](N)Cc1ccccc1)C(=O)NCCC(=O)OCn1cc(F)c(=O)[nH]c1=O [BC-04, (5-fluoro-2,4-dioxo-3,4-dihydropyrimidinyl-1(2H))methyl-4-((S)-2-((2S,3R)-3-amino-2-hydroxy-4-phenylbutanamido)-4-methylpentanamido)propanoate hydrochloride]
- inhibitory activity against aminopeptidase N compared with positive control ubenimex (Aminopeptidase N): much more potent than the positive control drug ubenimex

Compound: CC(C)C[C@H](NC(=O)[C@@H](O)[C@H](N)Cc1ccccc1)C(=O)N1CCC[C@H]1C(=O)OCn1cc(F)c(=O)[nH]c1=O [BC-07, (S)-(5-fluoro-2,4-dioxo-3,4-dihydropyrimidinyl-1(2H))methyl-1-((S)-2-((2S,3R)-3-amino-2-hydroxy-4-phenylbutanamido)-4-methylpentanamido)-2-tetrahydropyrrolidine carboxylate hydrochloride]
- inhibitory activity against aminopeptidase N compared with positive control ubenimex (Aminopeptidase N): much more potent than the positive control drug ubenimex
- IC50 (Aminopeptidase N): 0.15 µM
- Number of mice alive (H22 tumor cells; 8 mice, two cycles): 6
- Tumor growth inhibition (%) (H22 tumor cells; after two cycles): 43.61%
- Tumor weight (H22 tumor cells; after two cycles): 0.34 ± 0.24 g
- Body weight(g) Beginning (H22 tumor cells; beginning): 32.17 ± 3.86 g
- Body weight(g) Ending (H22 tumor cells; ending): 31.44 ± 5.01 g

Compound: (S)-2-((2S,4S)-4-((2S,4S,5R,6S)-4-((tert-butoxycarbonyl)amino)-5-hydroxy-6-methyl-2(2H)-tetrahydropyranyloxy))-2,5,12-trihydroxy-7-methoxy-6,11-dioxo-2-(1,2,3,4,6,11-hexahydrotetracenyl)-2-ethoxy-2-((2S,3R)-3-amino-2-hydroxy-4-phenylbutyryl)-4-methylpentanoate hydrochloride [Compound 28]
- inhibitory activity against aminopeptidase N compared with positive control ubenimex (Aminopeptidase N): comparable activity with ubenimex
- IC50 (Aminopeptidase N): 5.56 µM
- EC50 [1]: 3.02 µM
- EC50 [2]: 3.34 µM
- EC50 ([3]; 48 h): 4.02 µM
- EC50 (cell line Hela): 1.99 µM
- anti-proliferation effect against all the tumor cells [7]: obvious anti-proliferation effect
- proliferation inhibition activity compared with 5-FU [7]: much more potent than 5-FU
- EC50 [4]: 7.67 µM
- EC50 ([5]; 48 h): 2.55 µM
- EC50 ([6]; 48 h): 4.35 µM

- IC50 (Aminopeptidase N): 1.39 µM
Compound: CC(C)C[C@H](NC(=O)[C@@H](O)[C@H](N)Cc1ccccc1)C(=O)NCCCC(=O)OCn1cc(F)c(=O)[nH]c1=O [BC-05, (5-fluoro-2,4-dioxo-3,4-dihydropyrimidinyl-1(2H))methyl-6-((S)-2-((2S,3R)-3-amino-2-hydroxy-4-phenylbutanamido)-4-methylpentanamido)butanoate hydrochloride]
- inhibitory activity against aminopeptidase N compared with positive control ubenimex (Aminopeptidase N): much more potent than the positive control drug ubenimex
